Assay results taken from patent US10653691B2, “Method of promoting remyelination” (Case Western Reserve University, priority 2013, dated 2020).

What was measured:
[1] = test system: LPC lesion mouse model; assay: LPC-induced focal demyelination of the spinal cord and drug treatment; format: in vivo; details: for MBP staining in the lesions: 8 and 12 d.p.l.; for number of newly generated CC1+ oligodendrocytes in the lesion core: 8 d.p.l., miconazole 10 or 40 mg per kg, clobetasol 2 mg per kg, vs vehicle; for extent of remyelination (electron micrographs, toluidine blue): lesions of treated mice
Procedure: Focal demyelination in the spinal cord was induced by the injection of 1% LPC solution. Ten- to 12-week-old C57BL/6 female mice were anaesthetized using isoflurane and a T10 laminectomy was performed. One microlitre of 1% LPC was infused into the dorsal column at a rate of […]. The animals were euthanized either at day 8 or day 12 after the laminectomy (n=6-9 per group). Animals that were euthanized at day 8 received vehicle or drug daily by intraperitoneal injection between days 3 and 7. Animals used in the day 12 experiments received vehicle or drug daily by intraperitoneal injection between days 4 and 11. Drugs were dissolved in DMSO and then diluted with sterile saline for injection. Mice were deeply anaesthetized using ketamine/xylazine rodent cocktail and then euthanized by transcardial perfusion with 4% PFA for histological analysis or 4% PFA, 2% gluteraldehyde, and 0.1M sodium cacodylate for electron microscopy. PFA fixed tissue was equilibrated in 30% sucrose, embedded in OCT, and cryosectioned at 20 μm thickness and processed for CC1 and MBP immunohistochemistry. ImageJ was used to measure area of the lesion and CC1^+ cells within the lesion were scored manually. For CC1 scoring, sections were taken from the centre of each lesion to control for lesion variability.
Samples were processed as previously described.

[2] = test system: MOG35-55 EAE mouse model; assay: MOG35-55 chronic progressive EAE model; details: for areas of myelin disruption in the white matter (luxol fast blue, MBP immunohistochemistry): cervical spinal cords; for functional improvement (disease score): daily i.p. for 10 days from peak of disease; for MBP expression and extent of demyelination in the spinal cord: histology after treatment, vs vehicle; for average clinical scores and cumulative clinical scores: larger treatment cohort, n=12 to 18 mice per group; for immune cell infiltration into the lesion areas (IBA1 staining): spinal cords after treatment
Procedure: Immunohistochemistry was performed as previously described. In short, tissue sections or whole slices were washed three times in PBS, blocked in PBS containing Triton X-100 (0.1%) and normal donkey serum (NDS, 2% for sections and 10% for cerebellar slices) and incubated with primary antibody overnight. For MBP immunohistochemistry, the primary antibody solution consisted of 2% NDS, 2% bovine serum albumin, and 0.1% saponin. For all other antibodies, the primary antibody solution consisted of 2% NDS and 0.1% Triton X-100. Primary antibodies used included rat anti-MBP (Abcam, ab7349; 1:100), mouse anti-APC CC1 clone (Millipore, MABC200; 1:500), and rabbit anti-IBA1 (Wako Chemicals, 019-19741; 1:1,000). The tissue was then washed in PBS and incubated in secondary antibodies for […]. Secondary detection was performed with Alexa Fluor-conjugated secondary antibodies (1:500) for 1 h. Luxol fast blue staining was performed as previously described.
Samples were processed as previously described. In short, samples were osmicated, stained en bloc with uranyl acetate, and embedded in EMbed 812, an Epon-812 substitute (EMS). Sections (1 μm) were cut and stained with toluidine blue and visualized on a light microscope (Leica DM5500B). Additional thin sections were cut, carbon coated and imaged either on a JEOL JEM-1200-EX electron microscope or a T12 electron microscope (FEI).
EAE was induced by immunizing 10-week-old C57BL/6 female mice with […] injection of […] complete Freund's adjuvant emulsion (Hooke Laboratories). One hour after immunization, mice were given 100 ng of pertussis toxin by 100 μl intraperitoneal injection. A second dose of pertussis toxin was administered the next day. EAE onset was monitored daily and scored using a clinical scale where 0 represented no abnormality; 1, limp tail; 2, limp tail and hind limb weakness; 3, hind limb paralysis; 4, hind limb paralysis and forelimb weakness; and 5, moribund. […] Once mice reached peak of disease ˜day 15; clinical score=3) they were randomized into treatment groups, and drug or vehicle (DMSO in saline) was administered intraperitoneally daily for 10 days (n=12-16 mice per group). […] Experimenters were blinded to the identity of the treatments and animals were scored daily. Cumulative disease scores for each animal were calculated during the treatment period, and a two-tailed t-test compared drug—with vehicle-treated groups. The extent of recovery for each animal was calculated as the difference between the peak disease score and the score at the end of each experiment, and a two-tailed t-test was used to compare each treatment with vehicle. External validation of MOG35-55 EAE experiments (n=12 mice per group) was performed at Hooke Laboratories with experimenters blinded to the identity of the substances.

[3] = test system: hESC- and hiPSC-derived human OPCs; assay: Screening of human OPCs (MBP staining, HCA); format: cell-based; details: 21 days; miconazole 1 μM, clobetasol 5 μM; vs DMSO
Description: Human OPCs were generated from skin fibroblast-derived human iPSC line (CWRU43, Tesar laboratory) and hESC lines H7 (NIH Human Embryonic StemCell RegistryWA07; NIH approval number NIHhESC-10-0061) and H9 (NIH Human Embryonic Stem Cell Registry WA09; NIH approval number NIHhESC-10-0062) as previously described. iPSC- and hESC-derived OPCs were characterized by Sox10 (R&D Systems, AF2864; 1:100) staining, and then seeded in 96-well plates at 40,000 cells per well for drug testing. […] Plates were fixed and stained with MBP (Abcam, ab7349; 1:100) then imaged on the Operetta system. We analysed results with slight modification to HCA Acapella scripts used for mouse oligodendrocytes.

[4] = test system: mouse OPCs; assay: OPC differentiation into MBP+ oligodendrocytes; format: cell-based; details: for number of MBP+ oligodendrocytes by duration of treatment: 24, 48, 56 and 72 h; for number of MBP+ oligodendrocytes at 72 h by time of treatment start: treatment started at 0, 16, 24 or 48 h
Procedure: EpiSC-derived OPCs were seeded onto poly-D-lysine 96-well Viewplate or CellCarrier plates (PerkinElmer) coated with laminin (Sigma, L2020; 10 μgml^−1) using electronic multichannel pipetors. For the primary screen, 30,000 cells were seeded per well in screening medium (DMEM/F12 supplemented with N2 (R&D Systems), B-27 (Life Technologies), neurotrophin 3 (R&D Systems; 10 ng ml^−1), cAMP (Sigma; 50 μM), IGF-1 (R&D Systems; 100 ng ml^−1), noggin (R&D Systems; 100 ngml^−1)) and allowed to attach for 2 h before addition of drug. NIH Clinical Collection I and II drugs were added to assay plates with 0.1 ml pin replicators (Molecular Devices, Genetix; X5051), resulting in a final primary screening concentration of 5 μM. Thyroid-hormone-positive controls and DMSO vehicle controls were included in each assay plate. Cells were incubated under standard conditions (37° C., 5% CO2) for 3 days and fixed with 4% paraformaldehyde (PFA) in phosphate buffered saline (PBS). Fixed plates were permeabilized with 0.1% Triton X-100 and blocked with 10% donkey serum (v/v) in PBS for 2 h. Cells were labelled with MBP antibodies (Abcam, ab7349; 1:100) for 1 h at room temperature (˜22° C.) followed by detection with Alexa Fluorconjugated secondary antibodies (1:500) for 45 min. Nuclei were visualized by DAPI staining (Sigma; 1 μgml^−). All plates for the primary screen were processed and analyzed simultaneously to eliminate variability.
For the 5 μM in vitro screen, stained plates were imaged on the Opera confocal imaging system (PerkinElmer) and a set of 24×10 fields were collected from each well, resulting in an average of 10,000 cells being scored per well. For the dose-response (6.7 μM, 5 μM, 3.3 μM, 1.7 μM, 666 nM, 500 nM, and 333 nM) in vitro assays, plates were imaged on the Operetta High Content Imaging and Analysis system (PerkinElmer) and a set of 14×20 fields captured from each well resulting in an average of 3,300 cells being scored per well. […] Each traced nucleus region was then expanded by 50% and cross-referenced with the mature myelin protein (MBP or PLP1) stain to identify oligodendrocyte nuclei, and from this the percentage of oligodendrocytes was calculated. Processes emanating from oligodendrocyte nuclei were identified using the CSIRO2 analysis module within a custom Acapella script. Maximum mean process length (denoted ‘process length’) and mean process intensity (denoted ‘process intensity’) were generated on a per well basis. For the 5 μM in vitro screen, values were calculated and normalized to 100 for thyroid hormone (positive control)-treated wells and to 0 for DMSO(vehicle)-treated wells, on a per plate basis.

[5] = test system: muscarinic receptor subtypes (M1-M5); assay: Muscarinic receptor antagonism, GeneBLAzer or Tango cellular reporter assays; format: cell-based; details: 1 μM
Procedure: GeneBLAzer or Tango assays were performed to determine level of acetylcholine muscarinic receptor M1, M3, M5 (GeneBLAzer), M2 and […] (Tango) antagonism.

[6] = test system: PLP139-151 EAE mouse model; assay: PLP139-151-induced relapsing remitting EAE; format: in vivo
Description: Six- to seven-week-old female SJL/J mice were induced with PLP139-151 as for ex vivo recall assays. Mice were allowed to progress to disease onset at day 13 before being randomized into treatment groups (n=10 mice per group). […] This period fully encompassed the acute phase of disease onset followed by remission and the primary disease relapse. Treatments were blinded to the experimenters performing the assays.

[7] = miconazole 10 mg/kg, clobetasol 2 mg/kg, benztropine 10 mg/kg

Structure (SMILES) | MBP staining in the lesions [1] | number of newly generated CC1+ oligodendrocytes in the lesion core [1] | myelin thickness relative to axon diameter (g ratio) ([1]; 12 d.p.l., compared with intact myelin) | extent of remyelination (electron micrographs, toluidine blue) [1] | areas of myelin disruption in the white matter (luxol fast blue, MBP immunohistochemistry) [2] | functional improvement (disease score) [2, 7] | MBP expression and extent of demyelination in the spinal cord [2] | average clinical scores and cumulative clinical scores [2] | overt toxicity to the animals ([2]; miconazole 10 mg/kg, clobetasol 2 mg/kg, benztropine 10 mg/kg, daily i.p. 10 days) | immune cell infiltration into the lesion areas (IBA1 staining) [2] | human OPC differentiation [3] | number of MBP+ oligodendrocytes by duration of treatment [4] | number of MBP+ oligodendrocytes at 72 h by time of treatment start [4] | inhibition of muscarinic receptor subtypes M1-M5 [5] | efficacy in reducing disease severity ([6]; daily i.p. day 13 to 29, clobetasol 2 mg/kg, miconazole 10 mg/kg, benztropine 10 mg/kg) | T cells within the spleen ([6]; day 29, 2 mg/kg)
C[C@H]1C[C@H]2[C@@H]3CCC4=CC(=O)C=C[C@]4(C)[C@@]3(F)[C@@H](O)C[C@]2(C)[C@@]1(O)C(=O)CCl [clobetasol] | extensive MBP staining | significant increase in the number of newly generated CC1^+ oligodendrocytes | thinner than intact myelin | striking increase in the extent of remyelination | decrease in areas of myelin disruption in the white matter | marked improvement in function | restoration of MBP expression and a reduction in the extent of demyelination in the spinal cord | significant reduction of disease and functional improvement | no drugs showed any overt evidence of toxicity | small reduction of immune cell infiltration into the lesion areas, especially in clobetasol-treated animals, but not an abrogation | enhanced human OPC differentiation | progressive, time-dependent increase | dependent on drug treatment within the first 24 h of differentiation | Neither miconazole nor clobetasol inhibited any of the five muscarinic receptor subtypes | showed efficacy in reducing disease severity | severe reduction of T cells within the spleen
Clc1ccc(COC(Cn2ccnc2)c2ccc(Cl)cc2Cl)c(Cl)c1 (stereo not shown) [miconazole] | extensive MBP staining | significant increase in the number of newly generated CC1^+ oligodendrocytes | – | striking increase in the extent of remyelination | decrease in areas of myelin disruption in the white matter | marked improvement in function | restoration of MBP expression and a reduction in the extent of demyelination in the spinal cord | significant reduction of disease and functional improvement | – | small reduction of immune cell infiltration into the lesion areas | enhanced human OPC differentiation, with miconazole exhibiting the most reproducible and potent effects | progressive, time-dependent increase | dependent on drug treatment within the first 24 h of differentiation | Neither miconazole nor clobetasol inhibited any of the five muscarinic receptor subtypes | – | –
